Test results as given in PubChem BioAssay AID330 (DTP/NCI, 2004).
Where “and” joins values, the source holds several entries; their conditions need not be identical. Equal entries are not always repeated. Toxic doses and inconclusive results are not listed. How the source made its calls: active means survival T/C of 150% or more; inactive means T/C below 125% in these data. Square brackets hold non-standard residues; d marks the D form. Peptide text beside a SMILES is read from it. * marks the point of attachment. Nle = CCCC[CH](N)C(=O)O; Cbz = O=C(OCc1ccccc1)*

System: P388 leukemia ip, CD2F1 mice, survival T/C
Test: NCI In Vivo Anticancer Drug Screen. Data for tumor model P388 Leukemia (intraperitoneal) in CD2F1 (CDF1) mice
Conditions: endpoint: median survival time, higher = longer survival
Method in brief: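 Mice carrying the transplanted tumor received test compound or vehicle. Survival was recorded in each group, and the value is the treated-group measurement divided by that of the vehicle-treated control group.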

[1] = dose: 50.0 mg/kg/injection, schedule: Q01DX005 (ip), vehicle: saline
[2] = dose: 50.0 mg/kg/injection, schedule: Q01DX005 (ip), vehicle: saline with Tween-80
[3] = dose: 100.0 mg/kg/injection, schedule: Q01DX005 (ip), vehicle: saline with Tween-80
[4] = dose: 200.0 mg/kg/injection, schedule: Q01DX005 (ip), vehicle: saline with Tween-80
[5] = dose: 50.0 mg/kg/injection, schedule: Q01DX009 (ip), vehicle: Klucel (hydroxypropylcellulose) (HPC)
[6] = dose: 200.0 mg/kg/injection, schedule: Q01DX009 (ip), vehicle: Klucel (hydroxypropylcellulose) (HPC)

Measured: T/C

CCC(CNc1cc(OC)cc2cccnc12)NC1CCCCC1 (stereo unspecified)
inactive: dose: 12.5 mg/kg/injection, schedule: Q01DX005 (ip), vehicle: saline 102 % of control | dose: 25.0 mg/kg/injection, schedule: Q01DX005 (ip), vehicle: saline 99 % of control | [1] 100 % of control and 102 % of control

CC(=O)OCN(C)C=O
inactive: dose: 125.0 mg/kg/injection, schedule: Q01DX005 (ip), vehicle: water 96 % of control | dose: 250.0 mg/kg/injection, schedule: Q01DX005 (ip), vehicle: water 91 % of control | dose: 500.0 mg/kg/injection, schedule: Q01DX005 (ip), vehicle: water 98 % of control

COC(=O)C(CC(C)C)NC(=O)C(Cc1ccc(O)cc1)N(C(=O)OCc1ccccc1)C(=O)OCc1ccccc1 (stereo unspecified)
inactive: [2] 103 % of control | [3] 94 % of control | [4] 92 % of control

C/C(CCl)=N/NC1=NC(c2ccccc2Cl)P(=O)(NCCCNP2(=O)SC(N/N=C(/C)CCl)=NC2c2ccccc2Cl)S1 (stereo unspecified)
inactive: dose: 60.0 mg/kg/injection, schedule: Q01DX005 (ip), vehicle: saline with Tween-80 99 % of control | dose: 120.0 mg/kg/injection, schedule: Q01DX005 (ip), vehicle: saline with Tween-80 98 % of control | dose: 240.0 mg/kg/injection, schedule: Q01DX005 (ip), vehicle: saline with Tween-80 93 % of control

COc1ccc2c(C[N+](C)(C)CCC#N)cc(=O)oc2c1
inactive: dose: 50.0 mg/kg/injection, schedule: Q04DX002 (ip), vehicle: saline 100 % of control | dose: 100.0 mg/kg/injection, schedule: Q04DX002 (ip), vehicle: saline 100 % of control | dose: 200.0 mg/kg/injection, schedule: Q04DX002 (ip), vehicle: saline 104 % of control

NC(N)=NC(N)=NCCS(=O)(=O)O
inactive: [1] 110 % of control | dose: 100.0 mg/kg/injection, schedule: Q01DX005 (ip), vehicle: saline 110 % of control | dose: 200.0 mg/kg/injection, schedule: Q01DX005 (ip), vehicle: saline 117 % of control

Cn1c(=O)oc2ccc(S(=O)(=O)Nc3ccc(Cl)cc3[N+](=O)[O-])cc21
inactive: dose: 50.0 mg/kg/injection, schedule: Q01DX005 (ip), vehicle: saline + Tween-80 + alcohol 94 % of control | dose: 100.0 mg/kg/injection, schedule: Q01DX005 (ip), vehicle: saline + Tween-80 + alcohol 101 % of control | dose: 200.0 mg/kg/injection, schedule: Q01DX005 (ip), vehicle: saline + Tween-80 + alcohol 102 % of control

Cc1cccc(/C=N/Nc2cc(C)c3cccc(C)c3n2)n1
inactive: [2] 100 % of control | [3] 89 % of control | [4] 88 % of control

Fc1ccc(Oc2ccc(F)cc2)cc1
inactive: dose: 50.0 mg/kg/injection, schedule: Q04DX003 (ip), vehicle: saline with Tween-80 106 % of control | dose: 100.0 mg/kg/injection, schedule: Q04DX003 (ip), vehicle: saline with Tween-80 107 % of control | dose: 200.0 mg/kg/injection, schedule: Q04DX003 (ip), vehicle: saline with Tween-80 111 % of control | dose: 400.0 mg/kg/injection, schedule: Q04DX003 (ip), vehicle: saline with Tween-80 109 % of control

COc1cc(CNC(=O)CCCC/C=C\C(C)C)ccc1OC(=O)/C=C/c1ccccc1
inactive: dose: 1.55 mg/kg/injection, schedule: Q01DX009 (ip), vehicle: Klucel (hydroxypropylcellulose) (HPC) 100 % of control | dose: 3.1 mg/kg/injection, schedule: Q01DX009 (ip), vehicle: Klucel (hydroxypropylcellulose) (HPC) 106 % of control | dose: 6.2 mg/kg/injection, schedule: Q01DX009 (ip), vehicle: Klucel (hydroxypropylcellulose) (HPC) 103 % of control

COc1cc2oc(=O)ccc2cc1[C@@H]1OC(=O)C2(C)O[C@@H]12 (stereo partly specified)
inactive: dose: 2.5 mg/kg/injection, schedule: Q01DX009 (ip), vehicle: saline 112 % of control | dose: 5.0 mg/kg/injection, schedule: Q01DX009 (ip), vehicle: saline 93 % of control | dose: 6.0 mg/kg/injection, schedule: Q01DX009 (ip), vehicle: Klucel (hydroxypropylcellulose) (HPC) 107 % of control | dose: 6.0 mg/kg/injection, schedule: Q01DX009 (ip), vehicle: saline with Tween-80 110 % of control | dose: 8.0 mg/kg/injection, schedule: Q01DX009 (ip), vehicle: Klucel (hydroxypropylcellulose) (HPC) 114 % of control | dose: 8.0 mg/kg/injection, schedule: Q01DX009 (ip), vehicle: saline with Tween-80 117 % of control | dose: 10.0 mg/kg/injection, schedule: Q01DX009 (ip), vehicle: Klucel (hydroxypropylcellulose) (HPC) 105 % of control | dose: 10.0 mg/kg/injection, schedule: Q01DX009 (ip), vehicle: saline with Tween-80 110 % of control | dose: 12.0 mg/kg/injection, schedule: Q01DX009 (ip), vehicle: Klucel (hydroxypropylcellulose) (HPC) 103 % of control | dose: 12.0 mg/kg/injection, schedule: Q01DX009 (ip), vehicle: saline with Tween-80 110 % of control

Cc1ccc(S(=O)(=O)OCCn2nc(C)c3c(C)cc(=O)oc32)cc1
inactive: [5] 103 % of control | dose: 100.0 mg/kg/injection, schedule: Q01DX009 (ip), vehicle: Klucel (hydroxypropylcellulose) (HPC) 107 % of control | [6] 100 % of control

C1CCN2CC3CCCN4CCCC(C2C1)C34 (stereo unspecified)
inactive: dose: 6.2 mg/kg/injection, schedule: Q01DX007 (ip), vehicle: carboxymethylcellulose (CMC) 91 % of control and 100 % of control | dose: 12.5 mg/kg/injection, schedule: Q01DX007 (ip), vehicle: carboxymethylcellulose (CMC) 91 % of control | dose: 25.0 mg/kg/injection, schedule: Q01DX007 (ip), vehicle: carboxymethylcellulose (CMC) 91 % of control

O=C(O)CCCSC(=S)c1ccccc1
inactive: dose: 12.5 mg/kg/injection, schedule: Q01DX009 (ip), vehicle: Klucel (hydroxypropylcellulose) (HPC) 102 % of control | dose: 25.0 mg/kg/injection, schedule: Q01DX009 (ip), vehicle: Klucel (hydroxypropylcellulose) (HPC) 100 % of control | [5] 98 % of control and 105 % of control | [6] 101 % of control

Cc1cc(C)c(F)[c]([Hg][Br])c1N
inactive: dose: 0.78 mg/kg/injection, schedule: Q01DX005 (ip), vehicle: Klucel (hydroxypropylcellulose) (HPC) 89 % of control | dose: 1.56 mg/kg/injection, schedule: Q01DX005 (ip), vehicle: Klucel (hydroxypropylcellulose) (HPC) 92 % of control | dose: 6.25 mg/kg/injection, schedule: Q01DX005 (ip), vehicle: Klucel (hydroxypropylcellulose) (HPC) 90 % of control and 92 % of control

CC1=C2CCCCC2(O)OC1=O (stereo unspecified)
inactive: dose: 100.0 mg/kg/injection, schedule: Q01DX001 (ip), vehicle: saline 100 % of control | dose: 200.0 mg/kg/injection, schedule: Q01DX001 (ip), vehicle: saline 100 % of control | dose: 400.0 mg/kg/injection, schedule: Q01DX001 (ip), vehicle: saline 103 % of control

CC(CN(C)C)C(/C=C/c1ccccc1)=N\Nc1ccccc1 (stereo unspecified)
inactive: dose: 15.0 mg/kg/injection, schedule: Q01DX005 (ip), vehicle: saline 98 % of control | dose: 30.0 mg/kg/injection, schedule: Q01DX005 (ip), vehicle: saline 103 % of control | dose: 60.0 mg/kg/injection, schedule: Q01DX005 (ip), vehicle: saline 99 % of control and 107 % of control

COc1cc(C2c3cc4c(cc3OC(C)(N3CCCC3)C2C)OCO4)cc(OC)c1OC (stereo unspecified)
inactive: dose: 60.0 mg/kg/injection, schedule: Q01DX005 (ip), vehicle: Klucel (hydroxypropylcellulose) (HPC) 100 % of control | dose: 120.0 mg/kg/injection, schedule: Q01DX005 (ip), vehicle: Klucel (hydroxypropylcellulose) (HPC) 102 % of control | dose: 240.0 mg/kg/injection, schedule: Q01DX005 (ip), vehicle: Klucel (hydroxypropylcellulose) (HPC) 105 % of control

O=C1C(=O)N(c2ccccc2)N=C1N=Nc1ccccc1
inactive: [2] 110 % of control and 115 % of control | [3] 108 % of control and 114 % of control | [4] 117 % of control and 120 % of control | dose: 400.0 mg/kg/injection, schedule: Q01DX005 (ip), vehicle: saline with Tween-80 109 % of control

CC(C)/C=C1\C(=O)NCC(=O)N1Cc1ccccc1
inactive: dose: 75.0 mg/kg/injection, schedule: Q01DX001 (ip), vehicle: Klucel (hydroxypropylcellulose) (HPC) 103 % of control | dose: 150.0 mg/kg/injection, schedule: Q01DX001 (ip), vehicle: Klucel (hydroxypropylcellulose) (HPC) 100 % of control | dose: 300.0 mg/kg/injection, schedule: Q01DX001 (ip), vehicle: Klucel (hydroxypropylcellulose) (HPC) 94 % of control

CC(/C=N/Nc1ccccc1)=N\N=c1/scc(-c2ccc(C)cc2)n1C1CCCCC1
inactive: [2] 94 % of control | [3] 96 % of control | [4] 89 % of control

CCCCC(NC(=O)OCc1ccccc1)C(=O)NC(CCSC)C(=O)O (stereo unspecified) (Cbz-[Nle]-Met-OH; configuration not given here)
inactive: dose: 50.0 mg/kg/injection, schedule: Q01DX005 (ip), vehicle: Klucel (hydroxypropylcellulose) (HPC) 96 % of control | dose: 100.0 mg/kg/injection, schedule: Q01DX005 (ip), vehicle: Klucel (hydroxypropylcellulose) (HPC) 111 % of control | dose: 200.0 mg/kg/injection, schedule: Q01DX005 (ip), vehicle: Klucel (hydroxypropylcellulose) (HPC) 101 % of control
